≈ marks a conversion by molar mass, not a printed value.
Legend:
[1] = test system: Pseudomonas aeruginosa 27853; test: Broth microdilution, P. aeruginosa ATCC 27853; type: cell-based; details: 24 h, 37 °C
Source text: (§1) Compounds 3a–h were examined in accordance with the Clinical Laboratory Standards Institute (CLSI) recommendations, by means of the broth microdilution method, against gram-positive bacteria (Staphylococcus aureus 25923, Staphylococcus aureus 29213, Staphylococcus aureus 43300, Enterococcus faecalis 29212) and gram-negative bacteria (Escherichia coli 25922, Klebsiella pneumoniae 13883, Pseudomonas aeruginosa 27853) belonging to the ATCC collection, using levofloxacin as a reference drug. Table 3 lists the results, expressed as MIC (µg/mL). […] The lack of activity observed for compound 3d could be conceivably due to its poor solubility in the culture medium containing the inoculum.
(§2) Following the recommendations of the CLSI (Clinical and Laboratory Standards Institute, 2012), the broth microdilution method was used to determine the in vitro minimum inhibitory concentrations (MICs, µg/mL).. The concentration of the investigated compounds was set to its highest value to create stock solutions. Then, the stock solutions were diluted 1:10 with Cation-Adjusted Mueller Hinton Broth (Oxoid, Milan, Italy). After that, a series of concentrations from 512 µg/mL to […] were obtained in the wells by performing two-fold serial dilutions in the appropriate test medium. The diluent used to create the stock solution was 100% DMSO. We used the following bacterial strains from the ATCC collection that were available as freeze-dried discs: gram-positive strains such as S. aureus ATCC 25923, 29213, and 43300, and E. faecalis ATCC 29212, and gram-negative ones such as E. coli ATCC 25922, K. pneuomoniae ATCC 13883, and P. aeruginosa ATCC 27853. To preserve the purity of cultures and to allow their reproducibility, cryovials of all microbial strains were set up in the medium and stored at −80 °C. Mueller Hinton Broth (MHB) was used to prepare pre-cultures of each bacterial strain, which were then incubated for 3–5 h at 37 °C. In accordance with CLSI procedure M7-A9, the turbidity of the bacterial cell suspension was calibrated to 0.5 McFarland Standard using a spectrophotometric approach (OD625 nm 0.08–0.10). The standardized suspension was then further diluted (1:100) with MHB to reach 1–2 × 10^6 CFU/mL. A 200 µL aliquot of the final inoculum was inserted into each well. As a control for growth, several wells containing only inoculated broth were prepared. The plates were incubated at 37 °C for 24 h, and the MIC values were calculated as the lowest concentration of compounds at which there was no optically detectable bacteria growth. Each experiment was carried out in duplicate and repeated twice to determine the MICs. Levofloxacin served as the study’s standard reference antibiotic. Additionally, the antibacterial activity of DMSO alone (used as a diluent for the investigated compounds) was examined; therefore, volumes of this solvent with a concentration of less than 5% were utilized throughout the experimentation.

MDA-MB-231 cells = test: MTT cell viability assay, MDA-MB-231; type: cell-based, human; details: mean ± SD; for IC50: Homo sapiens, MDA-MB-231, 72 h exposure
Description: (§3) The anticancer activity of the studied compounds (3a–h) was explored with regards to two human breast cancer cell lines, namely the estrogen receptor positive (ER+) MCF-7 cells and the triple negative MDA-MB-231 cells (ER-, PR-, and HER-2/Neu-). Cells were continuously exposed to the test substances for 72 h, after which their viability was assessed by means of the MTT assay. Table 2 lists the determined IC50 values for the investigated substances and the reference drug, thalidomide. […] Additionally, the same test for all the compounds has been performed on nonmalignant breast epithelial cells (MCF-10A) to ascertain their potential cytotoxicity.
(§4) The four cell lines used in this work (MCF-7, MDA-MB-231, MCF-10A, and 3T3-L1) were obtained from the American Type Culture Collection (ATCC, Manassas, VA, USA). All cell lines were maintained at 37 °C in a humidified atmosphere of 95% air and 5% CO2 and periodically screened for contamination. MCF-7, human breast cancer cells estrogen receptor (ER)-positive, and human breast cancer triple negative MDA-MB231 were grown in DMEM-F12 medium containing 2 mmol/L L-glutamine, 1 mg/mL penicillin–streptomycin, and 5% newborn calf serum (NCS) or 5% fetal bovine serum (FBS), respectively. MCF-10A human mammary epithelial cells were cultured in DMEM/F12 medium, supplemented with 5% horse serum (HS) (Eurobio, Les Ullis, Cedex, France), 100 U/mL penicillin/streptomycin, […], 20 ng/mL hEGF (human epidermal growth factor), […], and […] (Sigma-Aldrich, Milano, Italy). BALB/3T3 murine fibroblast cells were cultured in DMEM high glucose supplemented with 10% bovine calf serum (BCS), 1% L-glutamine, and 100 U/mL penicillin/streptomycin.
(§5) Cell viability was evaluated by means of the 3-(4,5-dimethylthiazol-2-y1)-2,5-diphenyltetra zolium bromide (MTT, Sigma-Aldrich, Milan, Italy) assay. On 48-well plates, cells were seeded, and they were cultured in complete medium. Before being treated, cells were starved in serum-free medium for 24 h to allow cell cycle synchronization. Subsequently, cells were exposed to increasing doses of each compound for 72 h in phenol-red-free media supplemented with 1% serum before fresh MTT was added to each well (final concentration: 0.5 mg/mL). Cells were lysed with DMSO after 2 h of incubation at 37 °C, and optical density at 570 nm was then determined with a microplate reader. Using GraphPad Prism 9 software (GraphPad Inc., San Diego, CA, USA), the mean absorbance for each sample was expressed as a percentage over the control and plotted vs. drug concentrations to establish the IC50 values. The given standard deviations (SDs) are indicative of three separate tests carried out in triplicate.

[2] = test system: Staphylococcus aureus 43300; test: Broth microdilution, S. aureus ATCC 43300; type: cell-based; details: 24 h, 37 °C, methicillin-resistant
Source text: as §1, §2

[3] = test system: Klebsiella pneumoniae 13883; test: Broth microdilution, K. pneumoniae ATCC 13883; type: cell-based; details: 24 h, 37 °C, read-out: MIC K.p. 13883
Source text: as §1, §2

[4] = test system: Staphylococcus aureus 25923; test: Broth microdilution, S. aureus ATCC 25923; type: cell-based; details: 37 °C; for MIC: Staphylococcus aureus, 25923, 24 h
Source text: as §1, §2

[5] = test system: Enterococcus faecalis 29212; test: Broth microdilution, E. faecalis ATCC 29212; type: cell-based; details: 24 h, 37 °C, read-out: MIC E.f. 29212
Source text: as §1, §2

[6] = test system: Acinetobacter baumanii 19606; test: Broth microdilution, A. baumanii 19606; type: cell-based; details: Acinetobacter baumannii, 24 h, 37 °C, read-out: MIC A.b. 19606
[7] = test system: Staphylococcus aureus 29213; test: Broth microdilution, S. aureus ATCC 29213; type: cell-based; details: 24 h, 37 °C
Source text: as §1, §2

MCF-10A cells = test: MTT cell viability assay, nonmalignant MCF-10A; type: cell-based; details: Homo sapiens, 72 h exposure, nonmalignant breast epithelial cells, mean ± SD, read-out: IC50 MCF10-A
Description: as §3, §4, §5

## O=C1c2ccccc2C(=O)N1c1nc2ccccc2s1 [3a, 2-(1,3-benzothiazol-2-yl)-1H-isoindole-1,3(2H)-dione]
other
  melting point: 249 to 250 °C
[1]
  MIC: 64 µg/mL (≈ 228 µM)
MDA-MB-231 cells
  IC50: 81.8 ± 0.8 µM
[2]
  MIC: 64 µg/mL (≈ 228 µM)
[3]
  MIC: 128 µg/mL (≈ 457 µM)
[4]
  MIC: 64 µg/mL (≈ 228 µM)
[5]
  MIC: 64 µg/mL (≈ 228 µM)
[6]
  MIC: 64 µg/mL (≈ 228 µM)
[7]
  MIC: 64 µg/mL (≈ 228 µM)
MCF-10A cells
  IC50: > 500 µM

## COc1cc2nc(N3C(=O)c4ccccc4C3=O)sc2cc1OC [3f, 2-[5,6-Dimethoxy-1,3-benzothiazol-2-yl]-1H-isoindole-1,3(2H)-dione]
other
  melting point: > 250 °C
[1]
  MIC: 64 µg/mL (≈ 188 µM)
MDA-MB-231 cells
  IC50: 49.6 ± 1 µM
[2]
  MIC: 32 µg/mL (≈ 94 µM)
[3]
  MIC: 64 µg/mL (≈ 188 µM)
[4]
  MIC: 32 µg/mL (≈ 94 µM)
[5]
  MIC: 32 µg/mL (≈ 94 µM)
[6]
  MIC: 64 µg/mL (≈ 188 µM)
[7]
  MIC: 64 µg/mL (≈ 188 µM)
MCF-10A cells
  IC50: > 500 µM

## COc1ccc2nc(N3C(=O)c4ccccc4C3=O)sc2c1 [3e, 2-[6-Methoxy-1,3-benzothiazol-2-yl]-1H-isoindole-1,3(2H)-dione]
other
  melting point: 227 to 229 °C
[1]
  MIC: 64 µg/mL (≈ 206 µM)
MDA-MB-231 cells
  IC50: 102.8 ± 0.9 µM
[2]
  MIC: 32 µg/mL (≈ 103 µM)
[3]
  MIC: 64 µg/mL (≈ 206 µM)
[4]
  MIC: 32 µg/mL (≈ 103 µM)
[5]
  MIC: 64 µg/mL (≈ 206 µM)
[6]
  MIC: 64 µg/mL (≈ 206 µM)
[7]
  MIC: 64 µg/mL (≈ 206 µM)
MCF-10A cells
  IC50: > 500 µM

## O=C1c2ccccc2C(=O)N1c1nc2ccc(Oc3ccccc3)cc2s1 [3h, 2-[6-Phenoxy-1,3-benzothiazol-2-yl]-1H-isoindole-1,3(2H)-dione]
[1]
  MIC: 32 µg/mL (≈ 85.9 µM)
MDA-MB-231 cells
  IC50: 14 ± 0.5 µM
[2]
  MIC: 32 µg/mL (≈ 85.9 µM)
[3]
  MIC: 32 µg/mL (≈ 85.9 µM)
[4]; 24 h
  MIC S.a. 25923: 16 µg/mL (≈ 43 µM)
[4]
  MIC: 16 µg/mL (≈ 43 µM)
[5]
  MIC: 32 µg/mL (≈ 85.9 µM)
[6]
  MIC: 32 µg/mL (≈ 85.9 µM)
[7]
  MIC: 32 µg/mL (≈ 85.9 µM)
MCF-10A cells
  IC50: 193.9 ± 1 µM

## O=C1c2ccccc2C(=O)N1c1nc2ccc(C(F)(F)F)cc2s1 [3c, 2-[6-Trifluoromethyl-1,3-benzothiazol-2-yl]-1H-isoindole-1,3(2H)-dione]
[1]
  MIC: 128 µg/mL (≈ 367 µM)
MDA-MB-231 cells; 72 h exposure
  IC50 MDA-MB-231: did not possess any activity
MDA-MB-231 cells
  IC50: > 500 µM
[2]
  MIC: 64 µg/mL (≈ 184 µM)
[3]
  MIC: 128 µg/mL (≈ 367 µM)
[4]
  MIC: 128 µg/mL (≈ 367 µM)
[5]
  MIC: 64 µg/mL (≈ 184 µM)
[6]
  MIC: 128 µg/mL (≈ 367 µM)
[7]
  MIC: 128 µg/mL (≈ 367 µM)
MCF-10A cells
  IC50: > 500 µM

## Cc1ccc2nc(N3C(=O)c4ccccc4C3=O)sc2c1 [3d, 2-[6-Methyl-1,3-benzothiazol-2-yl]-1H-isoindole-1,3(2H)-dione]
other
  melting point: > 250 °C
[1]
  MIC: > 512 µg/mL
MDA-MB-231 cells
  IC50: 202.6 ± 0.6 µM
[2]
  MIC: > 512 µg/mL
[3]
  MIC: > 512 µg/mL
[4]
  MIC: > 512 µg/mL
[5]
  MIC: > 512 µg/mL
[6]
  MIC: > 512 µg/mL
[7]
  MIC: > 512 µg/mL
MCF-10A cells
  IC50: > 500 µM

## O=C1c2ccccc2C(=O)N1c1nc2ccc(F)cc2s1 [3b, 2-(6-Fluoro-1,3-benzothiazol-2-yl)-1H-isoindole-1,3(2H)-dione]
other
  melting point: 234 to 235 °C
[1]
  MIC: 64 µg/mL (≈ 215 µM)
MDA-MB-231 cells
  IC50: 71.2 ± 1 µM
[2]
  MIC: 64 µg/mL (≈ 215 µM)
[3]
  MIC: 128 µg/mL (≈ 429 µM)
[4]
  MIC: 64 µg/mL (≈ 215 µM)
[5]
  MIC: 64 µg/mL (≈ 215 µM)
[6]
  MIC: 128 µg/mL (≈ 429 µM)
[7]
  MIC: 64 µg/mL (≈ 215 µM)
MCF-10A cells
  IC50: 151.9 ± 1.1 µM

## O=C1c2ccccc2C(=O)N1c1nc2ccc(O)cc2s1 [3g, 2-[6-Hydroxy-1,3-benzothiazol-2-yl]-1H-isoindole-1,3(2H)-dione]
other
  melting point: > 250 °C
[1]
  MIC: 64 µg/mL (≈ 216 µM)
MDA-MB-231 cells
  IC50: 63.3 ± 0.7 µM
[2]
  MIC: 32 µg/mL (≈ 108 µM)
[3]
  MIC: 64 µg/mL (≈ 216 µM)
[4]
  MIC: 32 µg/mL (≈ 108 µM)
[5]
  MIC: 32 µg/mL (≈ 108 µM)
[6]
  MIC: 64 µg/mL (≈ 216 µM)
[7]
  MIC: 64 µg/mL (≈ 216 µM)
MCF-10A cells
  IC50: > 500 µM
